Results from patent US9695155B2, “Herbicidal substituted pyrimidinyloxy benzene compounds” (E. I. DU PONT DE NEMOURS AND COMPANY, priority 2013, dated 2017).

Columns and labels:
barnyardgrass [1] = assay: Test A postemergence; type: in vivo, Echinochloa crus-galli
How it was run: (§1)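 Scoring: eye-based comparison with untreated controls, 0 for no effect through 100 for complete control, at about day 10. Treatments: directed soil spray preemergence; foliar spray postemergence on 2–10 cm plants at the one- to two-leaf stage. Medium: loam soil with sand.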

wheat = assay: Test A postemergence; type: in vivo, Triticum aestivum
How it was run: as §1

rice = assay: Test B flooded paddy test; type: in vivo, Oryza sativa; settings: Flood, 250 g ai/ha; 0 to 100 scale where 0 is no effect and 100 is complete control
How it was run: (§2)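 Flooded to 3 cm at the 2-leaf stage, pots received compound through the paddy water and were kept at that depth under greenhouse conditions. After 13–15 days, effect was rated by eye relative to controls, 0 = none and 100 = complete control.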

sedge, umbrella = assay: Test B flooded paddy test; type: in vivo, Cyperus difformis; settings: Flood, 250 g ai/ha; 0 to 100 scale where 0 is no effect and 100 is complete control
How it was run: as §2

Heteranthera limosa = assay: Test B flooded paddy test; type: in vivo; settings: Flood, 250 g ai/ha; 0 to 100 scale where 0 is no effect and 100 is complete control
How it was run: as §2

barnyardgrass [2] = assay: Test B flooded paddy test; type: in vivo, Echinochloa crus-galli; settings: Flood, 250 g ai/ha; 0 to 100 scale where 0 is no effect and 100 is complete control
How it was run: as §2

wheat, winter = assay: Test C postemergence; type: in vivo, Triticum aestivum; settings: for Plant response rating (0 to 100), Wheat: 0 is no effect, 100 is complete control; for Wheat plant response rating: 31 g ai/ha; for Wheat plant response rating / Plant response rating, Wheat: scale 0 to 100 (0 no effect, 100 complete control)
How it was run: (§3)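 Whole-plant greenhouse test with surfactant-containing solvent formulation, applied preemergence to sown loam–sand pots or postemergence to 2–18 cm plants. Scored by eye 13 to 15 days on, 0–100 scale.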

corn = assay: Test C postemergence; type: in vivo, Zea mays; settings: for Plant response rating (0 to 100), Corn: 0 is no effect, 100 is complete control; for Corn plant response rating: 31 g ai/ha; for Corn plant response rating / Plant response rating, Corn: scale 0 to 100 (0 no effect, 100 complete control)
How it was run: as §3

giant foxtail = assay: Test C postemergence; type: in vivo, Setaria faberii; settings: for Plant response rating (0 to 100), Foxtail, Giant: 0 is no effect, 100 is complete control; for Foxtail, Giant plant response rating: 31 g ai/ha; for Foxtail, Giant plant response rating / Plant response rating, Foxtail, Giant: scale 0 to 100 (0 no effect, 100 complete control)
How it was run: as §3

morningglory = assay: Test C postemergence; type: in vivo, Ipomoea coccinea; settings: for Plant response rating (0 to 100), Morningglory: 0 is no effect, 100 is complete control; for Morningglory plant response rating: 31 g ai/ha; for Morningglory plant response rating / Plant response rating, Morningglory: scale 0 to 100 (0 no effect, 100 complete control)
How it was run: as §3

yellow nutsedge = assay: Test C postemergence; type: in vivo, Cyperus esculentus; settings: for Plant response rating (0 to 100), Nutsedge, Yellow: 0 is no effect, 100 is complete control; for Nutsedge, Yellow plant response rating: 31 g ai/ha; for Nutsedge, Yellow plant response rating / Plant response rating, Nutsedge, Yellow: scale 0 to 100 (0 no effect, 100 complete control)
How it was run: as §3

ragweed = assay: Test C postemergence; type: in vivo, Ambrosia elatior; settings: for Plant response rating (0 to 100), Ragweed: 0 is no effect, 100 is complete control; for Ragweed plant response rating: 31 g ai/ha; for Ragweed plant response rating / Plant response rating, Ragweed: scale 0 to 100 (0 no effect, 100 complete control)
How it was run: as §3

soybean = assay: Test C postemergence; type: in vivo, Glycine max; settings: for Plant response rating (0 to 100), Soybean: 0 is no effect, 100 is complete control; for Soybean plant response rating: 31 g ai/ha; for Soybean plant response rating / Plant response rating, Soybean: scale 0 to 100 (0 no effect, 100 complete control)
How it was run: as §3

[3] = 31 g ai/ha, 0 to 100 scale, 0 no effect, 100 complete control
[4] = 125 g ai/ha, 0 to 100 scale, 0 no effect, 100 complete control
[5] = postemergence, visual rating, 13 to 15 days
[6] = 125 g ai/ha, postemergence, visual rating
[7] = Postemergence, 62 g ai/ha, 13 to 15 days
[8] = 125 g ai/ha, 0 to 100 scale where 0 is no effect and 100 is complete control
[9] = 500 g ai/ha, 0 to 100 scale where 0 is no effect and 100 is complete control

| SMILES | Plant response rating, Barnyardgrass (barnyardgrass [1]; [3]) | Plant response rating, Wheat (wheat; [3]) | Plant response rating, Rice (rice) | Plant response rating, Sedge, Umbrella (sedge, umbrella) | Plant response rating, Ducksalad (Heteranthera limosa) | Plant response rating, Barnyardgrass (barnyardgrass [2]) | Plant response rating (0 to 100), Wheat (wheat, winter; 16 g ai/ha, postemergence) | Wheat plant response rating (wheat, winter; [5]) | Plant response rating, Wheat (wheat, winter; [6]) | Plant response rating (0 to 100), Corn (corn; 16 g ai/ha, postemergence) | Corn plant response rating (corn; [5]) | Plant response rating, Corn (corn; [6]) | Plant response rating (0 to 100), Foxtail, Giant (giant foxtail; 16 g ai/ha, postemergence) | Foxtail, Giant plant response rating (giant foxtail; [5]) | Plant response rating, Foxtail, Giant (giant foxtail; [6]) | Plant response rating (0 to 100), Morningglory (morningglory; 16 g ai/ha, postemergence) | Morningglory plant response rating (morningglory; [5]) | Plant response rating (0 to 100), Nutsedge, Yellow (yellow nutsedge; 16 g ai/ha, postemergence) | Plant response rating (0 to 100), Ragweed (ragweed; 16 g ai/ha, postemergence) | Plant response rating (0 to 100), Soybean (soybean; 16 g ai/ha, postemergence) | further results |
| --- | --- | --- | --- | --- | --- | --- | --- | --- | --- | --- | --- | --- | --- | --- | --- | --- | --- | --- | --- | --- | --- |
| FC(F)Oc1cnn(-c2c(Cl)cccc2Oc2ncc(Cl)cn2)c1 [Compound 258] | 10 | 0 | 30 | 95 | 100 | 60 | 0 | 0 | 5 | 5 | 5 | 20 | 5 | 20 | 45 | 65 | 85 | 0 | 25 | 50 | Plant response rating, Barnyardgrass (barnyardgrass [1]; [4]): 90; Plant response rating, Wheat (wheat; [4]): 50; Plant response rating, Wheat (wheat, winter; [7]): 5; Plant response rating, Corn (corn; [7]): 10; Plant response rating, Foxtail, Giant (giant foxtail; [7]): 25; Plant response rating, Morningglory (morningglory; [6]): 95; Plant response rating, Morningglory (morningglory; [7]): 85; Nutsedge, Yellow plant response rating (yellow nutsedge; [5]): 0; Plant response rating, Nutsedge, Yellow (yellow nutsedge; [6]): 5; Plant response rating, Nutsedge, Yellow (yellow nutsedge; [7]): 5; Ragweed plant response rating (ragweed; [5]): 50; Plant response rating, Ragweed (ragweed; [6]): 75; Plant response rating, Ragweed (ragweed; [7]): 50; Soybean plant response rating (soybean; [5]): 75; Plant response rating, Soybean (soybean; [6]): 95; Plant response rating, Soybean (soybean; [7]): 70 |
| FCc1cccc(Oc2ncc(F)cn2)c1-n1cc(I)cn1 [Compound 152] | 0 | 20 | 0 | 50 | 60 | 0 | 0 | 0 | – | 5 | 5 | – | 5 | 5 | – | 10 | 40 | 0 | 10 | 35 | Barnyardgrass plant response rating (barnyardgrass [1]; [8]): 30; Wheat plant response rating (wheat; [8]): 40; Plant response rating (0 to 100), Wheat (wheat, winter; 8 g ai/ha, postemergence): 0; Plant response rating (0 to 100), Corn (corn; 4 g ai/ha, postemergence): 0; Plant response rating (0 to 100), Corn (corn; 8 g ai/ha, postemergence): 0; Plant response rating (0 to 100), Foxtail, Giant (giant foxtail; 8 g ai/ha, postemergence): 0; Plant response rating (0 to 100), Morningglory (morningglory; 8 g ai/ha, postemergence): 0; Plant response rating (0 to 100), Nutsedge, Yellow (yellow nutsedge; 8 g ai/ha, postemergence): 0; Nutsedge, Yellow plant response rating (yellow nutsedge; [5]): 0; Plant response rating (0 to 100), Ragweed (ragweed; 8 g ai/ha, postemergence): 15; Ragweed plant response rating (ragweed; [5]): 40; Plant response rating (0 to 100), Soybean (soybean; 8 g ai/ha, postemergence): 30; Soybean plant response rating (soybean; [5]): 60 |
| Clc1cnc(Oc2cccc(Br)c2-n2cc(I)nn2)nc1 [Compound 117] | – | – | 0 | 20 | 40 | 0 | 0 | – | 20 | 5 | – | 5 | 20 | – | 55 | 80 | – | 5 | 25 | 35 | Plant response rating, Barnyardgrass (barnyardgrass [1]; [8]): 70; Plant response rating, Barnyardgrass (barnyardgrass [1]; [9]): 90; Plant response rating, Wheat (wheat; [9]): 70; Plant response rating, Wheat (wheat, winter; Postemergence, 62 g ai/ha): 5; Plant response rating, Corn (corn; Postemergence, 62 g ai/ha): 5; Plant response rating, Foxtail, Giant (giant foxtail; Postemergence, 62 g ai/ha): 40; Plant response rating, Morningglory (morningglory; [6]): 90; Plant response rating, Morningglory (morningglory; Postemergence, 62 g ai/ha): 90; Plant response rating, Nutsedge, Yellow (yellow nutsedge; [6]): 5; Plant response rating, Nutsedge, Yellow (yellow nutsedge; Postemergence, 62 g ai/ha): 5; Plant response rating, Ragweed (ragweed; [6]): 60; Plant response rating, Ragweed (ragweed; Postemergence, 62 g ai/ha): 35; Plant response rating, Soybean (soybean; [6]): 50; Plant response rating, Soybean (soybean; Postemergence, 62 g ai/ha): 50 |
